Legend:
BCR-NTRK1 BaF3 cells = target: T1, BCR-NTRK1 BaF3 cells (Homo sapiens, UniProt P04629); assay: BaF3 BCR-NTRK1 cell proliferation assay (ATPlite); assay type: cell-based; settings: read-out: Inhibition of Cell Proliferation IC50, BCR/BaF3 TrkA
T1 construct: fused on or other part: P11274 (Breakpoint cluster region protein)
Experimental: (§1) Compounds are assessed in a variety of cell based assays. For example BaF3 cells engineered with any of BCR-FMS, BCR-KIT, BCR-FLT3, BCR-NTRK1, BCR-NTRK2, and BCR-NTRK3, are used in cell proliferation assays to assess inhibitory activity of Fms, Kit, Flt-3, TrkA, TrkB, and TrkC, respectively. An MV-4-11 (leukemia) cell proliferation assay is used to assess inhibitory activity in Flt-3, and SKNSH (human neuroblastoma) cell proliferation assay is used to assess efficacy of Fms/Trk inhibitors. Additional cells may be assayed similarly to assess the efficacy of Fms/Trk inhibitors, such as MiaPaCa (human pancreatic cancer) and Capan-1 (human pancreatic carcinoma) cells. Reagent and assay conditions are as follows: • BaF3 cells: • Maintained in RPMI containing 10% FBS, 1% PenStrep, 1% NEAA, and 1% L-Glutamine, supplemented with 1 mg/mL G418 and 5% WEHI-CM (or recombinant murine IL-3). • Confluent cells are split 1:50 to 1:100 every 3-4 days. • MV-4-11 cells: • Maintained in Iscove's Modified Dulbecco's Medium containing 10% FBS. • Confluent cells are split 1:4 every 3-4 days. • SKNSH cells: RPMI containing 10% FBS. On day 1, cells are counted, then centrifuged in a conical tube for 5 minutes at 1000 rpm. The supernatant is removed and cells are re-suspended as follows: • BaF3: resuspend in growth media +1 mg/mL G418 (without WEHFIL-3) to 2×10^5 cells/mL. • MV-4-11: resuspend in growth media to 5×10^5 cells/mL. • SKNSH: resuspend in growth media to 2×10^4 cells/mL. The cells are plated (50 μL, 150 μL for SKNSH cells) in each well of a 96-well dish (Corning 3610) and incubated at 37° C. in 5% CO2 overnight, cells plated to a final concentration of cells as follows: • BaF3: 10,000 cells per well. • MV-4-11: 25,000 cells per well. • SKNSH: 3,000 cells per well. On day 2, compound at a maximum concentration of 5 mM is serially diluted 1:3 for a total of 8 point titration with DMSO as a control. A 1 μL aliquot of each dilution point is added to 249 μL growth media and 50 μL is added to a well containing cells, providing 10 μM compound for the maximum concentration point. The cells are incubated for 3 days at 37° C. in 5% CO2. For SKNSH cells, a 0.75 μL aliquot of appropriate dilution in DMSO is added to 150 μL of cells. On day 5, ATPlite 1 step Luminescence Assay System (Perkin Elmer #6016739) is brought to room temperature along with the cell cultures. ATPlite is added to each well as follows: • BaF3: 25 μL per well. • MV-4-11: 40 μL per well. • SKNSH: 20 μL per well. The cells are incubated at room temperature for 10 minutes, then luminescence is read on Safire reader. The measured luminescence correlates directly with cell number, such that the reading as a function of compound concentration is used to determine the IC50 value.
(§2) It is understood that the results of these assays may vary as assay conditions are varied. Inhibition levels determined under the conditions described herein represent a relative activity for the compounds tested under the specific conditions employed. The cell based assays are likely to show variability due to the complexity of the system and the sensitivity thereof to any changes in the assay conditions. […] Results for compounds that are tested and show substantially no inhibition below the highest tested concentration are represented as “-” in the tables below. In some instances, the compounds were not tested in all of the assays, or assay results were not valid, as indicated by NA in the tables below.

BCR-KIT BaF3 cells = target: T2, BCR-KIT BaF3 cells (Homo sapiens, UniProt P10721); assay: BaF3 BCR-KIT cell proliferation assay (ATPlite); assay type: cell-based; settings: read-out: Inhibition of Cell Proliferation IC50, BCR/BaF3 Kit
T2 construct: fused on or other part: P11274 (Breakpoint cluster region protein)
Experimental: as §1, §2

BCR-NTRK2 BaF3 cells = target: T3, BCR-NTRK2 BaF3 cells (Homo sapiens, UniProt Q16620); assay: BaF3 BCR-NTRK2 cell proliferation assay (ATPlite); assay type: cell-based; settings: read-out: Inhibition of Cell Proliferation IC50, BCR/BaF3 TrkB
T3 construct: fused on or other part: P11274 (Breakpoint cluster region protein)
Experimental: as §1, §2

CYP2C9 = CYP2C9 (Homo sapiens, UniProt P11712); assay: CYP2C9 inhibition (fluorescent substrate MFC); assay type: in vitro ADME; settings: read-out: Cyp IC50 2C9
Experimental: CYP (Cytochrome P450) enzymes are the major drug metabolizing enzymes present in the liver. The inhibition of CYP enzyme activity (IC50) for each of CYP1A2, CYP2C19, CYP2C9, CYP2D6, CYP3A4(BFC) and CYP3A4(BQ) is determined for compounds, where inhibition of metabolism of a known substrate leads to a decrease in the fluorescence of the metabolized product. The fluorescence of the product is monitored as a function of compound concentration. Compounds are dissolved in DMSO to a concentration of 100 mM. These are diluted 1 μL into 82 μL of acetonitrile. An 11 μL aliquot of this solution is then added to 204 μL of cofactor mix (1.3% NADPH Regeneration system Solution A, 1.04% NADPH Regeneration system Solution B from BD Biosciences, 5% acetonitrile and 0.05% DMSO). These are then serially diluted 1:1 (160 μL to 160 μL co-factor mix) for a total of 10 points. A 10 μL aliquot of this final mixture is dispensed into 384 well assay plates and incubated for 10 minutes at 37° C. […] Assay plates are incubated at 37° C. (CYP1A2-15 min; CYP2C9-45 min; CYP2C19, 2D6 and 3A4-30 min) and read in a Tecan Safire 2 plate reader (CYP1A2, 2C19 and 3A4 409 ex/460 em; CYP2C9 and 2D6 409 ex/530 em). The signal versus compound concentration is used to determine the IC50. The enzymes and substrates for this assay are obtained from BD Biosciences.

T1 sequence (P04629 510-781): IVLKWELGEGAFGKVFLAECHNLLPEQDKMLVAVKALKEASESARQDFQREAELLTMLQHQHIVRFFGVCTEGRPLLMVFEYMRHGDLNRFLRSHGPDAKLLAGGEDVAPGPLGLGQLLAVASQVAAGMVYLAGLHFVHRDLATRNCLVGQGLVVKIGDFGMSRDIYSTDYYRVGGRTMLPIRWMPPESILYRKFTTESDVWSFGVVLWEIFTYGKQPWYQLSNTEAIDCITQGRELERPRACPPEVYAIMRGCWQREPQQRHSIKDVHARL
Sequence of CYP2C9 (P11712 whole entry): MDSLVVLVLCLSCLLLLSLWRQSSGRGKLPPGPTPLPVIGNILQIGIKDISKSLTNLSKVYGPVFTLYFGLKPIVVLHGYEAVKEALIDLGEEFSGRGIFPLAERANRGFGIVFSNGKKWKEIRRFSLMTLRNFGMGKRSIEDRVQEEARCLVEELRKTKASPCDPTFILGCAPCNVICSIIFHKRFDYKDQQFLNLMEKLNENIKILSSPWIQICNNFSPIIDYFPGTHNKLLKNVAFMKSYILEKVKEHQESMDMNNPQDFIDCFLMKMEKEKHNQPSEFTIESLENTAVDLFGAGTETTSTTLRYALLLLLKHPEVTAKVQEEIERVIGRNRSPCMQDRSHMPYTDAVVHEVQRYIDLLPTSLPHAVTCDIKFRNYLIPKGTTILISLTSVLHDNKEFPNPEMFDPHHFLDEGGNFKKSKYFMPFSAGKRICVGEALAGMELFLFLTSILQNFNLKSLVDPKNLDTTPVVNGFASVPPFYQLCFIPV
T3 sequence (Q16620 538-807): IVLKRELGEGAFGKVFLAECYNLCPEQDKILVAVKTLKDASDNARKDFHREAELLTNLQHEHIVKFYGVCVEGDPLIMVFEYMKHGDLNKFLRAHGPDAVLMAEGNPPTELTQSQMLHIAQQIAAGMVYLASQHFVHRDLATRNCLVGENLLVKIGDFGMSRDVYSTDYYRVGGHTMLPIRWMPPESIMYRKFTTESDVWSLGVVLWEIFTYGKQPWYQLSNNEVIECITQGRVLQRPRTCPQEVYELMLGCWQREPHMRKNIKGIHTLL
T2 sequence (P10721 589-937): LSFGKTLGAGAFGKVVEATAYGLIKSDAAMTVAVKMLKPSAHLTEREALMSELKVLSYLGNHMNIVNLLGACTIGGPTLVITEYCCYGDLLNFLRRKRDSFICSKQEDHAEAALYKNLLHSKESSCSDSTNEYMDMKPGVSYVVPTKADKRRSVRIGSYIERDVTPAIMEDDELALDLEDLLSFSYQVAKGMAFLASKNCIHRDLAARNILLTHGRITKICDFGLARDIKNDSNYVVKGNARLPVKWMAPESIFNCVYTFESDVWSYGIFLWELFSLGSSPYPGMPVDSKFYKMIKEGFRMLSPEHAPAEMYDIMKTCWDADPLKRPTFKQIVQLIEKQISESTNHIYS

Row | SMILES | IC50 (BCR-NTRK1 BaF3 cells) [nM] | IC50 (BCR-KIT BaF3 cells) [nM] | IC50 (BCR-NTRK2 BaF3 cells) [nM] | IC50 (CYP2C9) [nM]
1 | O=C(c1ccc(NC2CCC(F)(F)CC2)nc1F)c1c[nH]c2ncnc(NCC(F)(F)F)c12 [Compound P-4061, [6-[(4,4-difluorocyclohexyl)amino]-2-fluoro-3-pyridyl]-[4-(2,2,2-trifluoroethylamino)-7H-pyrrolo[2,3-d]pyrimidin-5-yl]methanone] | < 100 | > 1000 | < 10 | > 10000
2 | O=C(c1ccc(NC2CCC(F)(F)CC2)nc1F)c1c[nH]c2ncnc(NC3CC3)c12 [Compound P-4062, [4-(cyclopropylamino)-7H-pyrrolo[2,3-d]pyrimidin-5-yl]-[6-[(4,4-difluorocyclohexyl)amino]-2-fluoro-3-pyridyl]methanone] | < 10 | < 1000 | < 10 | > 10000
3 | CCc1ccc(Nc2ccc(C(=O)c3c[nH]c4ncnc(N)c34)c(F)n2)cn1 [Compound P-4065, (4-amino-7H-pyrrolo[2,3-d]pyrimidin-5-yl)-[6-[(6-ethyl-3-pyridyl)amino]-2-fluoro-3-pyridyl]methanone] | < 100 | < 100 | < 10 | > 10000
4 | COc1ccc(Nc2ccc(C(=O)c3c[nH]c4ncnc(NC(C)C)c34)c(F)n2)cn1 [Compound P-4066, [2-fluoro-6-[(6-methoxy-3-pyridyl)amino]-3-pyridyl]-[4-(isopropylamino)-7H-pyrrolo[2,3-d]pyrimidin-5-yl]methanone] | < 10 | < 10 | < 10 | > 10000
5 | CCCNc1ncnc2[nH]cc(C(=O)c3ccc(Nc4ccc(OC)nc4)nc3F)c12 [Compound P-4068, [2-fluoro-6-[(6-methoxy-3-pyridyl)amino]-3-pyridyl]-[4-(propylamino)-7H-pyrrolo[2,3-d]pyrimidin-5-yl]methanone] | < 10 | < 100 | < 10 | > 10000
6 | COc1ccc(Nc2ccc(C(=O)c3c[nH]c4ncnc(NCC5CCCO5)c34)c(F)n2)cn1 (stereo not drawn) [Compound P-4073, [2-fluoro-6-[(6-methoxy-3-pyridyl)amino]-3-pyridyl]-[4-(tetrahydrofuran-2-ylmethylamino)-7H-pyrrolo[2,3-d]pyrimidin-5-yl]methanone] | < 100 | < 1000 | < 10 | > 10000
7 | COc1ccc(Nc2ccc(C(=O)c3c[nH]c4ncnc(NC5CCCC5)c34)c(F)n2)cn1 [Compound P-4075, [4-(cyclopentylamino)-7H-pyrrolo[2,3-d]pyrimidin-5-yl]-[2-fluoro-6-[(6-methoxy-3-pyridyl)amino]-3-pyridyl]methanone] | < 10 | < 100 | < 10 | > 10000

Second part, the compound after the results:

Row | IC50 (BCR-NTRK1 BaF3 cells) [nM] | IC50 (BCR-KIT BaF3 cells) [nM] | IC50 (BCR-NTRK2 BaF3 cells) [nM] | IC50 (CYP2C9) [nM] | SMILES
8 | < 10 | < 100 | < 100 | > 10000 | CNc1ncnc2[nH]cc(C(=O)c3ccc(NC4CCC(F)(F)CC4)nc3F)c12 [Compound P-4063, [6-[(4,4-difluorocyclohexyl)amino]-2-fluoro-3-pyridyl]-[4-(methylamino)-7H-pyrrolo[2,3-d]pyrimidin-5-yl]methanone]
9 | < 100 | < 100 | < 10 | > 10000 | CCc1ccc(Nc2ccc(C(=O)c3c[nH]c4ncnc(NCC(C)(C)O)c34)c(F)n2)cn1 [Compound P-4064, [6-[(6-ethyl-3-pyridyl)amino]-2-fluoro-3-pyridyl]-[4-[(2-hydroxy-2-methyl-propyl)amino]-7H-pyrrolo[2,3-d]pyrimidin-5-yl]methanone]
10 | < 10 | < 100 | < 10 | > 10000 | COc1ccc(Nc2ccc(C(=O)c3c[nH]c4ncnc(NCC5CC5)c34)c(F)n2)cn1 [Compound P-4067, [4-(cyclopropylmethylamino)-7H-pyrrolo[2,3-d]pyrimidin-5-yl]-[2-fluoro-6-[(6-methoxy-3-pyridyl)amino]-3-pyridyl]methanone]
11 | > 1000 | > 1000 | > 1000 | > 10000 | COc1ccc(Nc2ccc(C(=O)c3c[nH]c4ncnc(N5CCCCC5)c34)c(F)n2)cn1 [Compound P-4069, [2-fluoro-6-[(6-methoxy-3-pyridyl)amino]-3-pyridyl]-[4-(1-piperidyl)-7H-pyrrolo[2,3-d]pyrimidin-5-yl]methanone]
12 | > 1000 | > 1000 | > 1000 | > 10000 | COc1ccc(Nc2ccc(C(=O)c3c[nH]c4ncnc(N5CCOCC5)c34)c(F)n2)cn1 [Compound P-4070, [2-fluoro-6-[(6-methoxy-3-pyridyl)amino]-3-pyridyl]-(4-morpholino-7H-pyrrolo[2,3-d]pyrimidin-5-yl)methanone]
13 | < 100 | < 100 | < 100 | > 10000 | COc1ccc(Nc2ccc(C(=O)c3c[nH]c4ncnc(NCc5ccc(C(F)(F)F)nc5)c34)c(F)n2)cn1 [Compound P-4071, [2-fluoro-6-[(6-methoxy-3-pyridyl)amino]-3-pyridyl]-[4-[[6-(trifluoromethyl)-3-pyridyl]methylamino]-7H-pyrrolo[2,3-d]pyrimidin-5-yl]methanone]
14 | < 10 | < 1000 | < 10 | 5000 to 10000 | COc1ccc(Nc2ccc(C(=O)c3c[nH]c4ncnc(N[C@@H](C)c5ccc(F)cc5)c34)c(F)n2)cn1 [Compound P-4072, [2-fluoro-6-[(6-methoxy-3-pyridyl)amino]-3-pyridyl]-[4-[[(1S)-1-(4-fluorophenyl)ethyl]amino]-7H-pyrrolo[2,3-d]pyrimidin-5-yl]methanone]
15 | < 100 | < 1000 | < 100 | > 10000 | CCN1CCC(Nc2ncnc3[nH]cc(C(=O)c4ccc(Nc5ccc(OC)nc5)nc4F)c23)CC1 [Compound P-4074, [4-[(1-ethyl-4-piperidyl)amino]-7H-pyrrolo[2,3-d]pyrimidin-5-yl]-[2-fluoro-6-[(6-methoxy-3-pyridyl)amino]-3-pyridyl]methanone]
